{"source": "patent US20100203634A1", "about": "“Inhibition of stem cell differentiation, enhancement of proliferation and selective induction of apoptosis by Wnt factors” (DeltaCell B.V., priority 2003, published 2010)", "key": {"[1]": {"tested_on": "mesenchyme and epithelium of fetal lung explants", "assay": "TUNEL assay on sections of fetal lung explants", "format": "cell-based, mouse", "method": "The induction of apoptosis was detected using the “In Situ Cell Death Detection Kit,” of Roche (Cat. No. 11 684 817 001) according to the manufacturer's instructions.\n(§1) To further analyze the effect of Wnt3a upon apoptosis and proliferation, lung explants were cultured for four days in the presence of 0, 4, 20, 100, 250, 500, 750 and 1000 ng/ml. In order to identify whether after Wnt3A treatment cells are viable and active, proliferating BrdU was added to the culture medium, which is incorporated in newly synthesized DNA of active proliferating cells, two hours before the fixation of the lung explants. […] To better investigate this effect, histological sections were analyzed with the TUNEL assay, which detects fragmented DNA present in apoptotic cells (material and methods)."}, "[2]": {"tested_on": "Wnt-signaling pathway in human epithelial lung carcinoma cell line A549", "assay": "TopFlash/FopFlash reporter assay, A549", "format": "cell-based", "settings": "A549, 20 hours", "method": "(§2) Primary mouse fibroblasts isolated from E12.5 lung explants, the human epithelial lung carcinoma cell line A549 cells (ATCC CCL-185), the human epithelial lung adenocarcinoma cell line Calu-3 (ATCC_HTB-55) and the normal human fetal lung fibroblast cell line HFL-1 cells (ATCC—153) were cultured in 96-well plates and transfected with the TopFlash and FopFlash reporter constructs using lipofectamine 2000 according to the manufacturer's instructions. As an internal control for transfection efficiency, a constitutive renilla luciferase reporter (Promega) was cotransfected. The cells were transfected with the above-mentioned reporter constructs and simultaneously treated with different concentrations of Wnt3A for 20 hours, after which the cells were lysed and luciferase expression was measured using a Berthold luminometer for two seconds (V. Korinek et al., Mol. Cell. Biol. 18:1248-1256, 1998). […]\n(§3) In order to analyze if Wnt3A is able to activate the Wnt signal-transduction pathway in humans, we stimulated three different cell lines from human origin with Wnt3A and measured the response with the TopFlash/FopFlash reporter assay. The three human lung-derived cell lines analyzed were the lung epithelial carcinoma cell line A549 (FIG. 9B), the normal lung fibroblast line HFL-1 (FIG. 9C), and the epithelial adenocarcinoma cell line calu-3 (FIG. 9D)."}, "[3]": {"tested_on": "fetal lung explants (E12.5)", "assay": "Quantification of cell proliferation using phospho histon H3 immunohistochemistry", "format": "cell-based, mouse", "method": "The number of cells undergoing mitosis was measured using immunohistochemical detection of phosphorylated histon H3, which is present only on condensed chromosomes during mitosis. Per condition, at least four different lung explants were treated and in total, 20 sections per condition were counted for phospho histon H3-positive cells by two different investigators. The primary antibody against phopho histon H3 (Ser10, clone 6G3) was purchased from Cell Signaling Technology and used according to the recommendations of the supplier.\nTo further determine the short-term effect of different Wnt3A concentrations upon the induction of proliferation, lung explants (E12.5) were cultured for one day with 0, 30, 125 and 500 ng/ml Wnt3a.\nThe lung explants were processed for immunohistochemical analysis and stained for Histon H3 phosphorylation, which can be used as a quantifiable cell proliferation marker as it is present in a fixed amount on condensed chromosomes only during active cell division (material and methods). […] However, most of the increase in proliferation could be accounted to the mesenchyme, where an increase in 40 to 60% of cells undergoing […] was observed."}, "[4]": {"tested_on": "Wnt-signaling pathway in human epithelial lung adenocarcinoma cell line Calu-3", "assay": "TopFlash/FopFlash reporter assay, Calu-3", "format": "cell-based", "settings": "calu-3, 20 hours", "method": "as §2, §3"}, "[5]": {"tested_on": "mesenchyme and epithelium of fetal lung explants", "assay": "BrdU incorporation immunostaining on lung explants", "format": "cell-based, mouse", "settings": "four days", "method": "The primary antibodies used for the immunohistochemical detection was for beta-catenin; anti beta-catenin IgG, mAb, clone 14 from BD-Transduction Laboratories, for tubulin-beta mAb clone TBN05 (Tub2.1) from Neomarkers, for BrdU; anti-Bromodeoxyuridine (BrdU), mAb clone ZBU30 from Zymed Laboratories Inc.\nas §1\nIn order to identify whether the epithelial cells were still actively proliferating after four days of Wnt3a treatment, the histological sections were immunostained for incorporated BrdU (FIG. 6)."}, "[6]": {"tested_on": "fetal lung explants (E12.5)", "assay": "Expression profiling of lung explants, Affymetrix MOE430AB microarray", "format": "cell-based, mouse", "method": "To further investigate the effect of Wnt3A inhibition on lung differentiation, we analyzed the expression profiles of Wnt3A-treated lung explants with microarray analysis using the Affymetrix chip set MOE430AB, containing the complete mouse transcriptome. The lung explants, per condition, ten complete fetal lungs isolated from E12.5 embryos, were treated for four hours with 0 and 250 ng/ml Wnt3A (Wnt0/4 hr and Wnt250/4 hr, respectively), and for 24 hours with 0, 10, 50 and 250 ng/ml Wnt3A ([…], […], Wnt50/24 hr, Wnt250/24 hr, respectively). The 60 lung explants were isolated together from six pregnant Swiss mice and randomly distributed over the six different conditions.\nAfter the indicated time period, total RNA was isolated, which was processed for the synthesis of a probe for hybridization onto the MOE-430AB chip sets. […] A rapid response was observed when the lungs were treated for four hours with 250 ng/ml Wnt3A."}, "[7]": {"tested_on": "Wnt-signaling pathway in primary lung fibroblasts isolated from a E12.5 fetal lung", "assay": "TopFlash/FopFlash reporter assay, primary fetal lung cells", "format": "cell-based, mouse", "settings": "0.4 to 500 ng/ml, 20 hours", "method": "Primary mouse fibroblasts isolated from E12.5 lung explants, the human epithelial lung carcinoma cell line A549 cells (ATCC CCL-185), the human epithelial lung adenocarcinoma cell line Calu-3 (ATCC_HTB-55) and the normal human fetal lung fibroblast cell line HFL-1 cells (ATCC—153) were cultured in 96-well plates and transfected with the TopFlash and FopFlash reporter constructs using lipofectamine 2000 according to the manufacturer's instructions. As an internal control for transfection efficiency, a constitutive renilla luciferase reporter (Promega) was cotransfected. The cells were transfected with the above-mentioned reporter constructs and simultaneously treated with different concentrations of Wnt3A for 20 hours, after which the cells were lysed and luciferase expression was measured using a Berthold luminometer for two seconds (V. Korinek et al., Mol. Cell. Biol. 18:1248-1256, 1998). The Lipofectamine 2000 transfection reagent was purchased from Invitrogen Life Technologies. The wild-type beta-catenin/TCF reporter plasmid (TOPFLASH) and mutated reporter plasmid (FOPFLASH) were obtained from Upstate Biotechnology (NY, USA).\nThe dissociated lungs were co-transfected with the TopFlash reporter construct that is activated by nuclear beta-catenin transcription complexes. […]"}, "[8]": {"settings": "250 ng/ml, four hours, versus 0 ng/ml four hours"}, "[9]": {"settings": "24 hours, \"the ng/ml wnt3a-treated group\""}}, "note": "“Also recorded” adds a separate entry of the source."}
{"substance": "Wnt3a", "values": [{"measurement": "TUNEL-positive epithelial cells", "setting": "[1]; 1000 ng/ml, four days", "result": "almost none of the epithelial cells were TUNEL positive"}, {"measurement": "apoptosis in the mesenchyme (TUNEL)", "setting": "[1]; 1000 ng/ml, four days", "result": "massive induction of apoptosis in the mesenchyme"}, {"measurement": "mesenchymal cells picnotic and TUNEL positive", "setting": "[1]; 1000 ng/ml, four days", "result": "~100", "unit": "%"}, {"measurement": "TUNEL-positive epithelial cells", "setting": "[1]; 1000 ng/ml, four days, listed as Wnt3A", "result": "unaffected epithelium"}, {"measurement": "concentration at which TUNEL-positive (apoptotic) cells increase", "setting": "[1]; four days of culture", "result": "above 100 ng/ml"}, {"measurement": "TopFlash/FopFlash reporter response", "setting": "[2]", "result": "respond to Wnt3A in a dosage-dependent manner; also recorded: strong induction of the Wnt-signaling pathway"}, {"measurement": "effect on proliferation", "setting": "[3]; 30 ng/ml, after one day", "result": "markedly increases proliferation"}, {"measurement": "increase in overall proliferation (phospho histon H3-positive cells)", "setting": "[3]; 30, 125 and 500 ng/ml, one day", "result": "> 20", "unit": "%"}, {"measurement": "concentration at which the maximum stimulatory effect on proliferation was reached", "setting": "[3]; one day", "result": "≤ 30", "unit": "ng/mL"}, {"measurement": "TopFlash/FopFlash reporter response", "setting": "[4]", "result": "respond to Wnt3A in a dosage-dependent manner; also recorded: strong induction of the Wnt-signaling pathway"}, {"measurement": "BrdU-positive (active proliferating) cells", "setting": "[5]; 500 ng/ml and lower", "result": "both the mesenchyme and epithelium contained many BrdU-positive"}, {"measurement": "BrdU-positive (active proliferating) cells", "setting": "[5]; 750 ng/ml", "result": "intermediate effect"}, {"measurement": "BrdU-positive (active proliferating) cells", "setting": "[5]; 1000 ng/ml", "result": "almost all BrdU-positive cells were present in the epithelium"}, {"measurement": "changes in gene expression", "setting": "[6]; 10 ng/ml, 24 hours", "result": "capable of inducing significant changes in gene expression"}, {"measurement": "down-regulated genes", "setting": "[6]; 50 ng/ml, 24 hours", "result": 92, "unit": "genes"}, {"measurement": "up-regulated genes", "setting": "[6]; 50 ng/ml, 24 hours", "result": 95, "unit": "genes"}, {"measurement": "genes whose four-hour profile is opposite from the 24-hour Wnt3A-treated profiles", "setting": "[6]; 250 ng/ml four hours versus 24-hour groups", "result": "circa 75%"}, {"measurement": "down-regulated genes, more than two-fold", "setting": "[6]; 250 ng/ml, 24 hours", "result": 152, "unit": "genes"}, {"measurement": "up-regulated genes, more than two-fold", "setting": "[6]; 250 ng/ml, 24 hours", "result": 195, "unit": "genes"}, {"measurement": "down-regulated genes, more than two-fold", "setting": "[6]; [8]", "result": 1165, "unit": "genes"}, {"measurement": "up-regulated genes, more than two-fold", "setting": "[6]; [8]", "result": 446, "unit": "genes"}, {"measurement": "cluster analysis of expression profiles of 4500 genes: effect on differentiation", "setting": "[6]; 10, 50 and 250 ng/ml, 24 hours", "result": "inhibits, at least partially, the differentiation of fetal lung tissue; also recorded: inhibits lung differentiation and development"}, {"measurement": "down-regulated genes, more than two-fold", "setting": "[6]; [9]", "result": 223, "unit": "genes"}, {"measurement": "up-regulated genes, more than two-fold", "setting": "[6]; [9]", "result": 209, "unit": "genes"}, {"measurement": "TopFlash versus FopFlash reporter response", "setting": "[7]", "result": "clear Wnt3A dosage-dependent response"}]}
